Assay results as given in article PMC12249957, “Molecular Hybrids of Thiazolidinone: Bridging Redox Modulation and Cancer Therapy” (International Journal of Molecular Sciences, 2025).

How the values were obtained:
[1] = biological target: insulin-like growth factor-1 receptor (IGF-1R); parameters: method as in PMID 20178321; settings: read-out: IC50, IGF-1R inhibition; cited from earlier work
[2] = parameters: method as in doi:10.1016/j.molstruc.2024.139348; settings: DPPH; unit inferred; cited from earlier work
[3] = MTS cell viability assay, A549; format: cell-based; settings: human, A549 cells
Method: (§1) The MTS assay was employed in the current study to evaluate the in vitro effects of thiazolidinone derivatives (TZDs-1, 5, 6, and 7) on the cellular viability of the HFF-1, HepG2, and A549 cell lines following incubation for 24 and 48 h. Using the MTS assay allows for the quantitative measurement of how TZDs affect cell viability after a certain period of treatment. The 24- and 48-hour incubation periods are useful for observing either immediate and delayed cytotoxicity or effects on cell growth, providing more comprehensive data on the potential therapeutic or toxic properties of thiazolidinone derivatives.
(§2) All solvents used in the preparation of thiazolidinone derivatives were obtained in pure form from Sigma-Aldrich (St. Louis, MO, USA) and Thermo Fisher Scientific (Waltham, MA, USA). All other chemicals used herein were of analytical grade and were used without further purification. To separate and confirm the purity of thiazolidinone derivatives, column chromatography on silica gel (0.063–0.2 mm) and thin layer chromatography (TLC) with aluminum silica gel F254 were used. Human foreskin fibroblasts (HFF-1) (ATCC: SCRC-1041), hepatoblastoma cell line (HepG2) (ATCC: HB-8065), and human lung cancer cell line (A549) (ATCC: CCL-185) were used in this study to evaluate the cytotoxicity of the tested compounds. Distilled water for experiment preparation was generated using a Milli-Q® IQ 7005 Purification System (Millipore SAS, Molsheim, France).
(§3) HFF-1, HepG2, and A549 were cultured in DMEM (Sigma-Aldrich, St. Louis, MO, USA) medium complemented with 10% fetal bovine serum (FBS) (Sigma, Suffolk, UK), streptomycin ([…]), and penicillin (100 units/mL) (Sigma, Suffolk, UK) in a cell culture incubator (5% CO2 at 37 °C).
(§4) Thiazolidinone derivatives (TZDs-1, 5, 6, and 7) were prepared via dissolution in 10% DMSO and 8 serial dilutions and assessed starting from 5000 to 39 µg/mL. A CellTiter 96® AQueous One Solution Cell Proliferation Assay (MTS kit, Promega, Madison, WI, USA) was used to evaluate the cell viability of TZDs on the cells. Briefly, all cells were seeded into 96-well plates with a seeding density of 1.5 × 10^4 cells per well. After 24 h, cells adhered, and then, TZD derivatives were added, and plates were incubated in a cell culture incubator with 5% CO2 at 37 °C for 24 and 48 h. Completed DMEM was used as the positive control, and 0.1% Triton X-100 was used as the negative control. After incubation time, cells were washed with sterile phosphate-buffered saline, pH 7.4 (PBS), and then, a mixture of complete DMEM medium and MTS reagent was added to each well (100 µL of DMEM medium + 20 µL of MTS reagent). Finally, the plates were incubated for 3 h in a cell culture incubator. The absorbance at 492 nm was recorded using a Cytation ™ 3 Cell Imaging Multi-Mode Reader (BIOTEK Instruments Inc., Winooski, VT, USA). The percentage of cellular viability was calculated using the following equation:Cell Viability (%) = (S − T)/(H − T) × 100 where S is the absorbance of the cells treated with the applied compounds, T is the absorbance of the positive control, and H is the absorbance of the negative control. The results are presented as the mean ± SD of at least three independent measurements.

[4] = MTS cell viability assay, HFF-1; format: cell-based, human; settings: human, HFF-1 cells (foreskin fibroblasts)
Method: as §1, §2, §3, §4

[5] = MTS cell viability assay, HepG2; format: cell-based; settings: human, HepG2 cells; for viability: concentrations of ≥1250 µg/mL, time not stated
Method: as §1, §2, §3, §4

[6] = tested on: normal (HFF-1) and cancerous cells (HepG2 and A549); experiment: Summary of selectivity toward cancer cells (MTS viability, normal vs cancerous cells); format: cell-based, human
Method: as §1, §3, §4

[7] = DPPH radical-scavenging assay (antioxidant activity); format: biochemical
Method: In this study, the antioxidant activity of the newly synthesized thiazolidinone derivative 5 was evaluated, and its IC50 value was compared with those of the parent compound, thiazolidinone 1; previously reported derivatives 6 and 7; and the reference antioxidant, ascorbic acid. To ensure a valid comparison, all compounds were assessed under identical conditions using the DPPH (2,2-diphenyl-1-picrylhydrazyl) radical-scavenging assay.
The antioxidant activity of thiazolidinone derivative 5 was evaluated under conditions similar to those reported in our previous work for thiazolidinone derivatives (1, 6, and 7) using the DPPH assay (2,2-diphenyl-1-picrylhydrazyl). The concentration needed to get rid of 50% of free radicals is called IC50 (half-maximal inhibitory concentration) (μg/mL). The value of the IC50 is determined by plotting antioxidant activity against the concentration employing the equation below:%Antioxidant activity = (Acontrol − Asample/Acontrol) × 100 where Acontrol is the absorbance of the DPPH solution without the sample, and Asample is the absorbance with the tested compound. These percentage inhibition values are then plotted against the logarithm of the compound concentrations to generate a dose–response curve. […]

HFF-1 cells = experiment: MTS cell viability assay, HFF-1; format: cell-based, human; settings: 48 h, 1250 µg/mL
Method: as §1, §2, §3, §4

O=C1NC(=O)C(=Cc2ccco2)S1 [5-(furan-2-ylmethylene)thiazolidine-2,4-dione]
IC50 [1]: 0.061 µM

O=C1NC(=O)C(=Cc2ccccc2)S1 [5-benzylidenethiazolidine-2,4-dione]
IC50 [1]: 0.057 µM

COc1cc(C=NNC2=NC(=O)CS2)cc(OC)c1OC [TZD-1, 2-(2-(3,4,5-trimethoxybenzylidene) hydrazineyl)thiazol-4(5H)-one]
IC50 of antioxidant activity (Figure 3) [2]: 263 µg/mL | viability at 24 h, 1250 µg/mL ([3]; 24 h): 75.6% | viability at 48 h, 1250 µg/mL [3]: 70.6% | viability at 24 h, 1250 µg/mL ([4]; 24 h): 6.45% | viability at 48 h, 1250 µg/mL [4]: 15.3% | viability at 24 h, 1250 µg/mL ([5]; 24 h): 53.2% | viability at 48 h, 1250 µg/mL [5]: 21.9% | viability [5]: < 25% | Selectivity Toward Cancer Cells ([6]; 24 h, 1250 µg/mL): Low (high toxicity to normal cells) | Selectivity Toward Cancer Cells ([6]; 48 h, 1250 µg/mL): Low

COc1ccc(CN2C(=O)CSC2=NN=Cc2cc(OC)c(OC)c(OC)c2)cc1 [TZD-5, 3-(4-methoxybenzyl)-2-((3,4,5-trimethoxybenzylidene)hydrazineylidene) thiazolidin-4-one]
IC50 of antioxidant activity (DPPH) [7]: 24.4 µg/mL | viability at 24 h, 2500 µg/mL ([3]; 24 h, 2500 µg/mL): 95.8% | viability at 48 h, 2500 µg/mL ([3]; 2500 µg/mL): 55% | viability at 24 h, 2500 µg/mL ([4]; 24 h, 2500 µg/mL): 97% | viability at 48 h, 2500 µg/mL ([4]; 2500 µg/mL): 48% | viability at 24 h, 2500 µg/mL ([5]; 24 h, 2500 µg/mL): 63% | viability at 48 h, 2500 µg/mL ([5]; 2500 µg/mL): 57% | Selectivity Toward Cancer Cells ([6]; 24 h, 2500 µg/mL): Moderate (better selectivity) | Selectivity Toward Cancer Cells ([6]; 48 h, 2500 µg/mL): Moderate

COc1cc(/C=N/N=C2\SCC(=O)N2Cc2ccccc2)cc(OC)c1OC [TZD-6]
IC50 of antioxidant activity (Figure 3) [2]: 111 µg/mL | viability at 24 h, 156 µg/mL ([3]; 24 h, 156 µg/mL): 78% | viability at 24 h, 1250 µg/mL ([3]; 24 h): 13% | viability at 24 h, 5000 µg/mL ([3]; 24 h, 5000 µg/mL): 10% | viability at 48 h, 1250 µg/mL [3]: 9% | viability at 48 h, 2500 µg/mL ([3]; 2500 µg/mL): 13% | viability ([3]; concentrations of ≥1250 µg/mL, time not stated): < 25% | viability at 24 h, 312 µg/mL ([4]; 24 h, 312 µg/mL): 70% | viability at 24 h, 1250 µg/mL ([4]; 24 h): 2% | viability at 48 h, 1250 µg/mL [4]: 1 to 2% | viability at 48 h, 2500 µg/mL ([4]; 2500 µg/mL): 1 to 2% | HFF-1 Viability (%) (HFF-1 cells): 1–2% | viability at 24 h, 156 µg/mL ([5]; 24 h, 156 µg/mL): 76% | viability at 24 h, 1250 µg/mL ([5]; 24 h): 25% | viability at 24 h, 5000 µg/mL ([5]; 24 h, 5000 µg/mL): 35% | viability at 48 h, 1250 µg/mL [5]: 12% | viability at 48 h, 2500 µg/mL ([5]; 2500 µg/mL): 7% | viability [5]: < 25% | Selectivity Toward Cancer Cells ([6]; 24 h, 1250 µg/mL): Low (high toxicity to normal cells) | Selectivity Toward Cancer Cells ([6]; 48 h, 1250 µg/mL): Low

COc1cc(/C=N/N=C2\SCC(=O)N2Cc2ccc([N+](=O)[O-])cc2)cc(OC)c1OC [TZD-7]
IC50 of antioxidant activity (Figure 3) [2]: 200 µg/mL | viability at 24 h, 1250 µg/mL ([3]; 24 h): 70% | viability at 48 h, 1250 µg/mL [3]: 82.3% | viability at 24 h, 39 µg/mL ([4]; 24 h, 39 µg/mL): 135% | viability at 24 h, 1250 µg/mL ([4]; 24 h): 110% | viability at 48 h, 1250 µg/mL [4]: > 94% | viability at 24 h, 1250 µg/mL ([5]; 24 h): 96.4% | viability at 48 h, 1250 µg/mL [5]: ~23% | Selectivity Toward Cancer Cells ([6]; 24 h, 1250 µg/mL): Moderate (better selectivity) | Selectivity Toward Cancer Cells ([6]; 48 h, 1250 µg/mL): High

O=C1O[C@H]([C@@H](O)CO)C(O)=C1O [ascorbic acid, reference compound]
IC50 of antioxidant activity (DPPH) [7]: 11.76 µg/mL
